Experiment [1] concerns the target Coagulation factor X (Bos taurus, UniProt P00743). In words: Inhibitory activity against coagulation factor X.
In experiment [2] the target is Plasminogen (Homo sapiens, UniProt P00747). In words: Inhibitory activity against plasmin.
Experiment [3] concerns the target T1, Serine protease 1 (Bos taurus, UniProt P00760).
T1 sequence (P00760 whole entry): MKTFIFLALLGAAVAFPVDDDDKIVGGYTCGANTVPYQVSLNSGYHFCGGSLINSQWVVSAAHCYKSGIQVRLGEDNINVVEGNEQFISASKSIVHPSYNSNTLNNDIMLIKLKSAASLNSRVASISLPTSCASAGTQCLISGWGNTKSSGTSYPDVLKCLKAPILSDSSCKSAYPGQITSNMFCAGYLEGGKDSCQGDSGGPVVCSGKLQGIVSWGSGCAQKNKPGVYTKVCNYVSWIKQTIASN
Kind of experiment: Inhibitory activity against trypsin.

Experiment [4] deals with Prothrombin (Bos taurus, UniProt P00735).
Description: Inhibitory activity against thrombin

The structures appear in SMILES notation.

Sequence of Coagulation factor X (P00743 41-180 limits assumed): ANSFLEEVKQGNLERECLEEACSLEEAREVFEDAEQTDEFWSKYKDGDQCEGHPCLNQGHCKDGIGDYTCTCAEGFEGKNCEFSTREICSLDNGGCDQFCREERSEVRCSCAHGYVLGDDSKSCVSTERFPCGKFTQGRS
Sequence of Coagulation factor X (P00743 234-492 limits assumed): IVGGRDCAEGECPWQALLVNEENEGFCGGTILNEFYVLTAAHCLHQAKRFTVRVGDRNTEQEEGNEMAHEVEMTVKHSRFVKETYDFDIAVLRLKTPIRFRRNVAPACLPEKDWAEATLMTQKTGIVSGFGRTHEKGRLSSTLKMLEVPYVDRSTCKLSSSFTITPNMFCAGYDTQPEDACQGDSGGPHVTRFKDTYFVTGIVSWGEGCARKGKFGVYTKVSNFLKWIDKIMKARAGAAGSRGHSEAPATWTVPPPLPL
Sequence of Plasminogen (P00747 97-580 limits assumed): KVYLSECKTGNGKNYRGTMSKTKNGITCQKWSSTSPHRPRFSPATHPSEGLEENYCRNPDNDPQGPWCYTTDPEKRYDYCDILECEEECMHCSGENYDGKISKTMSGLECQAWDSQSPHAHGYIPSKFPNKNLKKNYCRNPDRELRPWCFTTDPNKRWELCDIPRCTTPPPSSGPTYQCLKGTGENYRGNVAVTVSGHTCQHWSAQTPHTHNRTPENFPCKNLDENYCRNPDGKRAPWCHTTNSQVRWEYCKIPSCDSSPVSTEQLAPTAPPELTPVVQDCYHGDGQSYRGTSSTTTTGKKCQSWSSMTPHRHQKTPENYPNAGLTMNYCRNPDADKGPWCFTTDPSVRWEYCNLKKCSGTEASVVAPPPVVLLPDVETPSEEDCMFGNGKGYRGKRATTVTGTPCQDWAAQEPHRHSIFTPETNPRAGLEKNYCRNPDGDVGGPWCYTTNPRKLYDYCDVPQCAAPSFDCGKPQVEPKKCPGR
Sequence of Plasminogen (P00747 581-810 limits assumed): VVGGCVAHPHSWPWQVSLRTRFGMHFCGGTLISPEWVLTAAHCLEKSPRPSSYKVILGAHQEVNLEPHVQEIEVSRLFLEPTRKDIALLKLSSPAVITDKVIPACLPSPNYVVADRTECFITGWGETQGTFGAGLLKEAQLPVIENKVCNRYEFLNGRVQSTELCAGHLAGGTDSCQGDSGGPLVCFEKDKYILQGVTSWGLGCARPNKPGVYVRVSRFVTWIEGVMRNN

For `CCOC(=O)N1CCN(C(=O)C(Cc2cccc(C(=N)N)c2)NS(=O)(=O)c2ccc3ccccc3c2)CC1` (stereo not given), the Ki in experiment [1] amounted to 54 µM; in experiment [2] it was 2.5 µM; in experiment [3] it was 0.022 µM; in experiment [4], 0.67 µM.
Regarding `CN1CCN(C(=O)C(Cc2cccc(C(=N)N)c2)NS(=O)(=O)c2ccc3ccccc3c2)CC1` (stereo not given), the Ki stood at 30 µM in experiment [1], 55 µM in experiment [2] and 0.036 µM in experiment [4].
As to `COc1cc(C)c(S(=O)(=O)NC(Cc2cccc(C(=N)N)c2)C(=O)N2CCN(S(C)(=O)=O)CC2)c(C)c1C` (stereo not given), the inhibition constant (Ki) in experiment [3] turned out to be 1.8 µM.
On to `CS(=O)(=O)N1CCN(C(=O)[C@H](Cc2cccc(C(=N)N)c2)NS(=O)(=O)c2ccc3ccccc3c2)CC1`, for which, in experiment [3], the Ki worked out at 13 µM. Against the preceding molecule, the Ki is about 7.2-fold higher.
Still for that read-out and setting: the result for `CC(=O)N1CCN(C(=O)C(Cc2cccc(C(=N)N)c2)NS(=O)(=O)c2ccc3ccccc3c2)CC1` (stereo not given) reads 0.14 µM.
Regarding `CC1(C)C2CCC1(CCS(=O)(=O)NC(Cc1cccc(C(=N)N)c1)C(=O)N1CCN(S(C)(=O)=O)CC1)C(=O)C2` (stereo in doubt; 30), the Ki worked out at 6.7 µM in experiment [1], 29 µM in experiment [2], 0.44 µM in experiment [3] and 0.031 µM in experiment [4].
In experiment [3], `CC(=O)N1CCN(C(=O)[C@H](Cc2cccc(C(=N)N)c2)NS(=O)(=O)c2ccc3ccccc3c2)CC1` gave a Ki of 17 µM.
For `CC1(C)C2CCC1(CCS(=O)(=O)NC(Cc1cccc(C(=N)N)c1)C(=O)N1CCN(S(C)(=O)=O)CC1)C(=O)C2` (stereo in doubt; 28), the inhibitory constant (Ki) came out at 1.1 µM in experiment [1], 14 µM in experiment [2], 0.22 µM in experiment [3] and 0.012 µM in experiment [4].
As for `N=C(N)c1cccc(CC(NS(=O)(=O)c2ccc3ccccc3c2)C(=O)N2CCN(C(=O)c3ccccc3)CC2)c1` (stereo not given), the Ki in experiment [1] stood at 16 µM; in experiment [2], 7.2 µM; in experiment [3], 0.14 µM; in experiment [4], 7.6 µM.
In the case of `N=C(N)c1cccc(CC(NS(=O)(=O)c2ccc3ccccc3c2)C(=O)N2CCCCC2)c1` (stereo not given), the Ki in experiment [1] was 38 µM; in experiment [2], 7 µM.
For `N=C(N)c1cccc(CC(NS(=O)(=O)c2ccc3ccccc3c2)C(=O)N2CCN(c3ccccc3)CC2)c1` (stereo not given), in that order: 27 µM and 2.6 µM.
On to `CCN(CC)C(=O)N1CCN(C(=O)C(Cc2cccc(C(=N)N)c2)NS(=O)(=O)c2ccc3ccccc3c2)CC1` (stereo not given), for which the Ki in experiment [1] was found to be 12 µM; in experiment [2], 14 µM; in experiment [3], 0.22 µM; in experiment [4], 0.51 µM.
As to `N=C(N)c1cccc(C[C@H](NS(=O)(=O)c2ccc3ccccc3c2)C(=O)N2CCN(CCO)CC2)c1`, the Ki stood at 39 µM in experiment [3] and 5.6 µM in experiment [4].
Consider `CC(C)c1cc(C(C)C)c(S(=O)(=O)NC(Cc2cccc(C(=N)N)c2)C(=O)N2CCN(S(C)(=O)=O)CC2)c(C(C)C)c1` (stereo not given), for which the Ki in experiment [1] came out at 7.4 µM; in experiment [2], 6.4 µM.
The like results for `COC(=O)N1CCN(C(=O)C(Cc2cccc(C(=N)N)c2)NS(=O)(=O)c2ccc3ccccc3c2)CC1` (stereo not given) were, in that order, 77 µM and 2.8 µM.
In the case of `N=C(N)c1cccc(CC(NS(=O)(=O)c2ccc3ccccc3c2)C(=O)N2CCN(S(=O)(=O)c3ccccc3)CC2)c1` (stereo not given), the Ki in experiment [3] stood at 0.33 µM.
On the same count and under the same terms, the result for `Cc1c(C)c(S(=O)(=O)NC(Cc2cccc(C(=N)N)c2)C(=O)N2CCN(S(C)(=O)=O)CC2)c(C)c2c1OC(C)(C)CC2` (stereo not given) reads 0.76 µM.
Consider `CCCCS(=O)(=O)N1CCN(C(=O)C(Cc2cccc(C(=N)N)c2)NS(=O)(=O)c2ccc3ccccc3c2)CC1` (stereo not given), for which the Ki is 18 µM in experiment [1], 11 µM in experiment [2], 0.18 µM in experiment [3] and 0.35 µM in experiment [4].
In the case of `CS(=O)(=O)N1CCN(C(=O)C(N)Cc2cccc(C(=N)N)c2)CC1` (stereo not given), the Ki in experiment [1] and in experiment [2] was > 1000 µM each time.
Turning to `CN(C)C(=O)N1CCN(C(=O)[C@H](Cc2cccc(C(=N)N)c2)NS(=O)(=O)c2ccc3ccccc3c2)CC1`, the figures for the Ki in experiment [3] and in experiment [4] were 8.5 µM and 0.35 µM, respectively.
As to `N=C(N)c1cccc(CC(NS(=O)(=O)c2ccc3ccccc3c2)C(=O)N2CCNCC2)c1` (stereo not given), the results for the inhibition constant (Ki) in experiment [1] and in experiment [2] were 21 µM and 10.2 µM, respectively.
In the case of `N=C(N)c1cccc(CC(NS(=O)(=O)c2ccc3ccccc3c2)C(=O)N2CCN(C(=O)Oc3ccccc3)CC2)c1` (stereo not given), the Ki in experiment [1] is 43 µM; in experiment [2], 2.3 µM; in experiment [3], 0.028 µM; in experiment [4], 17 µM.
As to `CCCC(=O)N1CCN(C(=O)C(Cc2cccc(C(=N)N)c2)NS(=O)(=O)c2ccc3ccccc3c2)CC1` (stereo not given), the Ki worked out at 80 µM in experiment [1], 8.6 µM in experiment [2], 0.049 µM in experiment [3] and 1.04 µM in experiment [4].
Consider `CS(=O)(=O)N1CCN(C(=O)C(Cc2cccc(C(=N)N)c2)NS(=O)(=O)c2ccc3ccccc3c2)CC1` (stereo not given), for which the inhibition constant Ki in experiment [3] stood at 0.19 µM.
Turning to `CC1CCN(C(=O)C(Cc2cccc(C(=N)N)c2)NS(=O)(=O)c2ccc3ccccc3c2)CC1` (stereo not given), the Ki in experiment [1] amounted to 41 µM; in experiment [2], 5.2 µM.
Turning to `CCCCCC(=O)N1CCN(C(=O)C(Cc2cccc(C(=N)N)c2)NS(=O)(=O)c2ccc3ccccc3c2)CC1` (stereo not given), the Ki in experiment [3] is 0.064 µM.
In the case of `CS(=O)(=O)N1CCN(C(=O)C(Cc2cccc(C(=N)N)c2)NS(=O)(=O)c2ccccc2)CC1` (stereo not given), the Ki turned out to be 29 µM in experiment [1], 29 µM in experiment [2], 1 µM in experiment [3] and 0.22 µM in experiment [4].
As to `CCCS(=O)(=O)N1CCN(C(=O)C(Cc2cccc(C(=N)N)c2)NS(=O)(=O)c2ccc3ccccc3c2)CC1` (stereo not given), the Ki stood at 22 µM in experiment [1], 7.8 µM in experiment [2], 0.21 µM in experiment [3] and 0.28 µM in experiment [4].
As for `N=C(N)c1cccc(CC(NS(=O)(=O)c2ccc3ccccc3c2)C(=O)N2CCN(CCO)CC2)c1` (stereo not given), in experiment [3], the inhibitory constant (Ki) came to 1.1 µM.
Same read-out and setting: the value for `N=C(N)c1cccc(CC(NS(=O)(=O)c2ccc3ccccc3c2)C(=O)N2CCN(S(=O)(=O)c3ccc4ccccc4c3)CC2)c1` (stereo not given) was 0.4 µM.
In experiment [3], `CN(C)C(=O)N1CCN(C(=O)C(Cc2cccc(C(=N)N)c2)NS(=O)(=O)c2ccc3ccccc3c2)CC1` (stereo not given) returned a Ki of 0.17 µM.
Still for that read-out and setting: the result for `CCS(=O)(=O)N1CCN(C(=O)C(Cc2cccc(C(=N)N)c2)NS(=O)(=O)c2ccc3ccccc3c2)CC1` (stereo not given) reads 0.19 µM.
In the case of `CC(C)(C)c1ccc(S(=O)(=O)NC(Cc2cccc(C(=N)N)c2)C(=O)N2CCN(S(C)(=O)=O)CC2)cc1` (stereo not given), in experiment [2], the Ki is 14 µM.
In the case of `N=C(N)c1cccc(CC(NS(=O)(=O)c2ccc3ccccc3c2)C(=O)N2CCN(C(=O)c3ccc4ccccc4c3)CC2)c1` (stereo not given), the Ki in experiment [1] turned out to be 7.3 µM; in experiment [2], 3 µM; in experiment [3], 0.19 µM; in experiment [4] it was 0.46 µM.
In experiment [3], `N=C(N)c1cccc(CC(NS(=O)(=O)c2ccc3ccccc3c2)C(=O)N2CCN(C=O)CC2)c1` (stereo not given) returned a Ki of 0.22 µM. This lies in the sub-micromolar range.
For `N=C(N)c1cccc(CC(NS(=O)(=O)c2ccc3ccccc3c2)C(=O)N2CCN(C(=O)C3CCCCC3)CC2)c1` (stereo not given), the affinity in experiment [3] corresponds to a Ki of 0.072 µM.
With `N=C(N)c1cccc(C[C@H](NS(=O)(=O)c2ccc3ccccc3c2)C(=O)N2CCN(C=O)CC2)c1`, the values for the Ki in experiment [3] and in experiment [4] were 11.1 µM and 1.6 µM, respectively.
Molecule `Cc1ccc(S(=O)(=O)N2CCN(C(=O)C(Cc3cccc(C(=N)N)c3)NS(=O)(=O)c3ccc4ccccc4c3)CC2)cc1` (stereo not given) displayed a Ki in experiment [3] of 0.22 µM. This lies in the sub-micromolar range.
On to `CN1CCN(C(=O)[C@H](Cc2cccc(C(=N)N)c2)NS(=O)(=O)c2ccc3ccccc3c2)CC1`, for which the Ki in experiment [3] worked out at 73 µM; in experiment [4], 7.1 µM.

The Ki is a measure of affinity in units of concentration, obtained from inhibition or displacement. A higher Ki goes with lower affinity.

The record behind these values is ChEMBL document CHEMBL1130155, “Synthesis and structure-activity relationships of potent thrombin inhibitors: piperazides of 3-amidinophenylalanine” (J Med Chem, 1997).
